Reference: patent US20240417429A1, “COMPOSITIONS AND METHODS FOR SKIPPING EXON 45 IN DUCHENNE MUSCULAR DYSTROPHY” (Entrada Therapeutics, Inc., priority 2021, published 2024)

Legend:
exon 45 = conditions: RMS cells, 24 hr incubation; for Exon Skipping Efficacy (%) with 5 μM AC: 5 μM AC with Endo-Porter; for Exon Skipping Efficacy (%) with 10 μM AC: 10 μM AC with Endo-Porter
Experimental: Cell Culture and Treatment: This study eruploys human rhabdomyosarcorna cells (RMS cells, ATCC CRL-2061. RMS cells were cultured in T75 flasks in RP 11640 (ATCC) medium with addition of 10% FBS (VWR) and Ix Penicillin-Streptormycin (VWR) under conditions of 37° C. and 5% CO2. 1×10^5 RMS cells were seeded per well in RPMII 640 full medium in 24-well plates for overnight. The next day the culture medium was replaced with 1 mL. fresh medium 5 μM or 10 μM of an AC from Table 8 was added to the cell culture and swirled to mix. Subsequently, 6 μL of Endo-Porter (Gene-tools) was added to the cell culture per well (1 mL of culture medium) and immediately swirled to mix. […] The cells were allowed to stand at room temperature for 5 minutes for cell lysis and pipetted a few times for a thorough mix. The lysates were collected in the Sample Tube RB (QIAGEN).
RNA Extraction: The RNA was extracted using QIAcube following the protocol from the manufacture. The concentration of the total RNA was determined using a NanoDrop 8000 (Thermo Fisher Scientific).
Nested PCR: Nested PCR was performed with 200 ng of the extracted total RNA and QIAGEN OneStep RT-PCR Kits for the primary amplification. A reaction solution of 50 μL was prepared following manufacture's protocol with DMD specific primers
The RT-PCR program used is as follows:
The secondary amplification PCR reaction was prepared using OneTaq® Hot Start 2X Master Mix following manufacture's protocol
Gel Electrophoresis Analysis for Exon Skipping Efficiency: 4 μL of the PCR product above was analyzed by 2% E-gel (Invitrogen′™) and imaged with E-Gel™ Power Snap Electrophoresis System (Thermo Fisher Scientific). The intensities of the skipped and full-length bands were analyzed. The polynucleotide level “A” of the band with exon 45 skipping and the polynucleotide level “B” of the band without exon 45 skipping were measured using ImageJ. 181 Based on these measurement values of “A” and “B”, the skipping efficiency was determined by the following equation: Skipping efficiency (%)=A/(A+B)'100.

D2/MDX mice [1] = conditions: Q2W IV; 4, 8 and 12 weeks post-treatment
Experimental: Serum CK was determined at 4 time points: pre-dose, and at 4, 8 and 12 weeks.

D2/MDX mice [2] = conditions: Q2W IV; at 12 weeks vs pre-dose
Experimental: Grip strength was measured at pre-dose (FIG. 11A) and at 12 weeks (FIG. 11B).

D2/MDX mice [3] = conditions: PMO only, Q2W IV; 2 to 12 weeks

5′-CCCAATGCCATCCTGGAGTTCCTGT-3′ [D45-25mer-n4]
Exon Skipping Efficacy (%) with 5 μM AC (exon 45): 37.6% | Exon Skipping Efficacy (%) with 10 μM AC (exon 45): 42.6%

5′-CCCAATGCCATCCTGGAGTTCCTG-3′ [D45-24mer-n3]
Exon Skipping Efficacy (%) with 5 μM AC (exon 45): 44.2% | Exon Skipping Efficacy (%) with 10 μM AC (exon 45): 52.3%

5′-CCGCTGCCCAATGCCATCCTGGAG-3′ [D45-24mer-3]
Exon Skipping Efficacy (%) with 5 μM AC (exon 45): 37.2% | Exon Skipping Efficacy (%) with 10 μM AC (exon 45): 40.8%

5′-CCCAATGCCATCCTGGAGTTCC-3′ [D45-22mer-n1]
Exon Skipping Efficacy (%) with 5 μM AC (exon 45): 45.1% | Exon Skipping Efficacy (%) with 10 μM AC (exon 45): 62.3%

5′-TGCCCAATGCCATCCTGGAGTTCCT-3′ [D45-25mer-n2]
Exon Skipping Efficacy (%) with 5 μM AC (exon 45): 44.0% | Exon Skipping Efficacy (%) with 10 μM AC (exon 45): 48.8%

5′-CCCAATGCCATCCTGGAGTTCCT-3′ [D45-23mer-n2]
Exon Skipping Efficacy (%) with 5 μM AC (exon 45): 46.4% | Exon Skipping Efficacy (%) with 10 μM AC (exon 45): 58.2%

5′-CAATGCCATCCTGGAGTTCCTGT-3′ [D45-23mer-n4]
Exon Skipping Efficacy (%) with 5 μM AC (exon 45): 35.3% | Exon Skipping Efficacy (%) with 10 μM AC (exon 45): 45.3%

5′-ATGCCATCCTGGAGTTCCTGT-3′ [D45-21mer-n4]
Exon Skipping Efficacy (%) with 5 μM AC (exon 45): 42.6% | Exon Skipping Efficacy (%) with 10 μM AC (exon 45): 52.0%

5′-ATGCCATCCTGGAGTTCCTGTA-3′ [D45-22mer-n5]
Exon Skipping Efficacy (%) with 5 μM AC (exon 45): 36.8% | Exon Skipping Efficacy (%) with 10 μM AC (exon 45): 50.9%

5′-CCGCTGCCCAATGCCATCCTG-3′ [D45-21mer-6]
Exon Skipping Efficacy (%) with 5 μM AC (exon 45): 45.9% | Exon Skipping Efficacy (%) with 10 μM AC (exon 45): 59.5%

5′-GCCCAATGCCATCCTGGAGTTCC-3′ [D45-23mer-n1]
Exon Skipping Efficacy (%) with 5 μM AC (exon 45): 39.6% | Exon Skipping Efficacy (%) with 10 μM AC (exon 45): 54.4%

5′-GGCCAAACCTCGGCTTACCTGAAAT-3′ [PMO-MDX23]
Serum CK (D2/MDX mice [1]): no significant decrease | Grip strength (D2/MDX mice [2]): no significant improvement | Wire hang time, PMO treatment alone (D2/MDX mice [3]): following the same trends as the vehicle D2.mdx group

5′-AATGCCATCCTGGAGTTCCTG-3′ [D45-21mer-n3]
Exon Skipping Efficacy (%) with 5 μM AC (exon 45): 41.8% | Exon Skipping Efficacy (%) with 10 μM AC (exon 45): 52.7%
